The source of these data is article PMC11775380, “Discovery of Novel Nav1.7-Selective Inhibitors with the 1H-Indole-3-Propionamide Scaffold for Effective Pain Relief” (Research, 2025).

In data set [1] the test system is small (<30 μm) DRG neurons. Put plainly: Current-clamp recording of action potential firing (membrane excitability). The data set is classed as cell-based, mouse. Particulars: 10 μM. The method, then:
To investigate the mechanism of action of WN2-R and facilitate animal model experiments, we used voltage-clamp recording to test the effects of WN2-R on the native Na^+-, K^+-, and Ca^2+-mediated currents in DRG neurons. […] Furthermore, the effects of WN2-R on membrane excitability were examined in small (<30 μm) DRG neurons from mice using current-clamp recordings.
DRG isolation and culture were performed according to our previous report. Briefly, C57BL/6 mice (weight 18 to 20 g, 6 to 8 weeks) were euthanized via cervical dislocation under anesthesia. Lumbar DRGs were isolated from the L4 to L5 segments of the lumbar spinal cord. The DRG neurons were subsequently dissociated through enzymatic digestion with collagenase (0.32 mg/ml) and trypsin (0.15 mg/ml) at 37 °C for 30 min, with intermittent shaking. After centrifugation at 800 rpm for 5 min at room temperature, the cells were seeded onto poly-L-lysine-coated coverslips and cultured in DMEM (Gibco) supplemented with 10% fetal bovine serum (Gibco). […]
For recording Nav currents of DRG neurons, the bath solution contains (in mM) 30 NaCl, 1 MgCl2, 1.8 CaCl2, 5 CsCl, 5 KCl, 25 D-glucose, 5 HEPES, 0.1 CdCl2, and TEA-Cl (pH 7.4 with NaOH), and the pipette solution contains (in mM) 135 CsCl, 10 NaCl, and 5 HEPES (pH 7.4 with CsOH). The Nav current program is recorded following the above method. […]

Data set [2] can be described thus: Pharmacokinetic study in mice (p.o. and i.v.), LC-MS/MS of plasma. It is filed as in vivo, ICR mice. Particulars: for MRT last: read-out: MRT(0-t); for MRT inf: read-out: MRT(0-∞). The method, then: To evaluate the pharmaceutical properties of WN2-R, a preliminary pharmacokinetic study was conducted in mice to examine the in vivo pharmacokinetic profile following both oral (p.o.) and intravenous (i.v.) administrations, along with the determination of bioavailability (Table 2). Under p.o. conditions, WN2-R was rapidly absorbed, with drug detection occurring within 5 min. […] Similar to the p.o. study, the plasma concentration decreased gradually over time, approaching the quantitation limit at 6 to 8 h post-dosing (Fig. 7C).
The pharmacokinetic and bioavailability of WN2-R were examined in ICR mice following both p.o. and i.v. administrations. All animal experiment procedures were carried out in accordance with the animal experiment procedures promulgated by the State Science and Technology Commission of China and Animal Care and Use Committee of Institute of Materia Medica, Chinese Academy of Medical Sciences (registry no. 00008517). Male ICR mice (n = 12), weighing 20 ± 2 g, were obtained from Beijing Vital River Experimental Animal Co., Ltd. (Beijing, China). Before the experiment, the mice were kept under standard conditions, including a 12-h light/dark cycle, adequate ventilation, a temperature of 25 ± 2 °C, and 60% relative humidity. WN2-R, suspended in physiological saline, was orally administrated to mice at 10 mg/kg after an overnight fast. In addition, the mice were injected via caudal vein with WN2-R dissolved in 20% HP-β-CD at 1 mg/kg. Blood samples were collected from the retro-orbital venous plexus to ice-cooled EP tube containing 0.5% heparin sodium at 0.033 (i.v. only), 0.083, 0.25, 0.5, 1, 2, 4, 6, 8, 12, and 24 h after dosing. Plasma was obtained by centrifugation of blood at 8,000 rpm for 5 min. Subsequently, 20 μl of plasma sample was mixed with 140 μl of acetonitrile, vortexed for 30 s, and centrifuged twice at 14,000 rpm for 5 min. The resulting supernatant (2 μl) was analyzed by the liquid chromatography–tandem mass spectrometry (LC-MS/MS) method.
The LC-MS/MS system consisted of Thermo TSQ Access Max mass and Vanquish liquid chromatograph (Thermo Scientific, USA). Zorbax-SB C18 column (2.1 × 100 mm, 3.5 μm Agilent USA) was used in the analysis. The mobile phase consisted of water containing 0.1% formic acid (Phase A) and acetonitrile (Phase B) at a flow rate of 0.25 ml/min with an operation temperature of 35 °C. A gradient elution system was used as follows: 40% B at 0 to 1 min, 90% B at 1 to 4 min, 90% B down to 40% B at 4 to 5 min, and 40% B at 5 to 7 min. The automatic sampler was maintained at 15 °C throughout the analysis. For the mass spectrometry analysis, positive ion scanning in selected reaction monitor mode was applied to monitor the transition of m/z 458.2 to 191.9 for the determination of WN2-R. Besides, other instrument parameters, including ion spray voltage, capillary temperature, sheath gas, auxiliary gas, and collision energy, were optimized to enhance the analysis of WN2-R.
EXCEL and PRISM8.0 were used for data and chart preparation. The Winnolin professional software was employed for the pharmacokinetic parameter calculation. Bioavailability was calculated using the following formula: F (%) = (Di.v. × AUCp.o.)/(Dp.o. × AUCi.v.) × 100%.

Where [3] appears, read: male, ICR, mouse, plasma, iv, i.v. (1 mg/kg).
Where [4] appears, read: male, ICR, mouse, plasma, po, p.o. (10 mg/kg).

Read-outs that look alike come from different tables or passages of the source.

Regarding `Cc1ccc(Cn2cc([C@H](CC(=O)NCCN(C)C)c3ccc(F)cc3)c3ccccc32)cc1` [WN2-R], the “Action potential (AP) firing in response to depolarizing currents” value in data set [1] is listed as “markedly reduced”. Also, in data set [2] (i.v. (1 mg/kg)), the “Time at which Cmax was detected” value was 2 min and the V was 23,580.98 ± 2,679.45 ml/kg. The highest level in data set [2] (male, ICR, mouse, iv, i.v. (1 mg/kg), plasma) (Cmax) was 269 ± 11.9 ng/mL. Moreover, in data set [2] (setting [3]), the AUC(0-inf) came out at 271 ± 30.8 ng·h/mL, the AUC(0-t) was 267 ± 29.7 ng·h/mL, the Tmax was 0.033 h and the clearance is 62 mL/min/kg. Further, in data set [2] (setting [3]), the half-life is 4.47 ± 0.96 h, the MRT last was found to be 3.21 ± 0.28 h and the MRT inf stood at 3.56 ± 0.44 h. Also, the bioavailability in data set [2] (male, ICR, mouse, plasma, oral, p.o. 10 mg/kg vs i.v. 1 mg/kg, from AUC(0-t), read-out: F (bioavailability)) was 20.3%. Also, in data set [2] (setting [4]), the AUC(0-inf) came to 546 ± 98.1 ng·h/mL, the AUC(0-t) is 542 ± 98.5 ng·h/mL, the Tmax was determined as 0.25 h and the half-life is 3.46 ± 0.5 h. Further, in data set [2] (setting [4]), the MRT last came to 5.66 ± 0.33 h and the MRT inf came out at 5.87 ± 0.4 h. In addition, the Cmax in data set [2] (male, ICR, mouse, po, p.o. (10 mg/kg), plasma) was determined as 139 ± 25.4 ng/mL.
